Assay results as given in ChEMBL document CHEMBL1133313, “Syntheses and antifungal activity of pseudomycin side-chain analogues. Part 1” (2000).
Values after ≈ are worked out from the molar mass of the structure shown. Positions of bridges follow the written chain, without caps; N, C: chain ends. Non-standard residues stand in square brackets, D forms with d. Residues, ends and D or L forms follow the SMILES beside them. *: point of attachment. Tetradecanoyl(3R-OH) = CCCCCCCCCCC[C@@H](O)CC(=O)*; Asp(3S-OH) = N[C@H](C(=O)O)[C@H](O)C(=O)O; Thr(4-Cl) = N[C@H](C(=O)O)[C@H](O)CCl; aThr = C[C@H](O)[C@H](N)C(=O)O; dDab = NCC[C@@H](N)C(=O)O; Dab = NCC[C@H](N)C(=O)O; Dhb = C/C=C(\N)C(=O)O

Columns and labels:
Type in all cases: functional
[1] = system: Candida albicans; test: Lowest concentration required to inhibit 90-100% of the visible growth of Candida albicans when compared to controls
[2] = system: Aspergillus fumigatus; test: Lowest concentration required to inhibit the growth of Aspergillus fumigatus
[3] = system: Candida albicans; test: Lowest concentration required to inhibit 90-100% of the visible growth of Candida albicans when compared to control; Range is 0.312-0.625

## C/C=C1\NC(=O)[C@H]([C@H](C)O)NC(=O)[C@@H](CCN)NC(=O)[C@@H](CCCCN)NC(=O)[C@@H](CC(=O)O)NC(=O)[C@@H](CCN)NC(=O)[C@@H](NC(=O)C[C@@H](O)c2cccc(OCCCCCCCCCCC)c2)COC(=O)[C@@H]([C@H](O)CCl)NC(=O)[C@H]([C@H](O)C(=O)O)NC1=O
[1]
  MIC: 10 µg/mL (≈ 7.69 µM)
[2]
  MIC: > 20 µg/mL

## C/C=C1\NC(=O)[C@H]([C@H](C)O)NC(=O)[C@@H](CCN)NC(=O)[C@@H](CCCCN)NC(=O)[C@@H](CC(=O)O)NC(=O)[C@@H](CCN)NC(=O)[C@@H](NC(=O)C[C@@H](O)c2cccc(CCCCCCCCCCCC)c2)COC(=O)[C@@H]([C@H](O)CCl)NC(=O)[C@H]([C@H](O)C(=O)O)NC1=O
[1]
  MIC: 5 µg/mL (≈ 3.85 µM)
[2]
  MIC: > 20 µg/mL

## C/C=C1\NC(=O)[C@H]([C@@H](C)O)NC(=O)[C@@H](CCN)NC(=O)[C@@H](CCCCN)NC(=O)[C@@H](CC(=O)O)NC(=O)[C@@H](CCN)NC(=O)[C@@H](NC(=O)CC(O)Cc2cccc(OCCCCCCCCCC)c2)COC(=O)[C@@H]([C@H](O)CCl)NC(=O)[C@H]([C@H](O)C(=O)O)NC1=O (stereo not given in full)
[1]
  MIC: 15 µg/mL (≈ 11.5 µM)
[2]
  MIC: > 20 µg/mL

## C/C=C1\NC(=O)[C@H]([C@@H](C)O)NC(=O)[C@@H](CCN)NC(=O)[C@@H](CCCCN)NC(=O)[C@@H](CC(=O)O)NC(=O)[C@@H](CCN)NC(=O)[C@@H](NC(=O)C[C@H](O)c2cccc(CCCCCCCC)c2)COC(=O)[C@@H]([C@H](O)CCl)NC(=O)[C@H]([C@H](O)C(=O)O)NC1=O
[1]
  MIC: 5 µg/mL (≈ 4.03 µM)
[2]
  MIC: > 20 µg/mL

## C/C=C1\NC(=O)[C@H]([C@@H](C)O)NC(=O)[C@@H](CCN)NC(=O)[C@@H](CCCCN)NC(=O)[C@@H](CC(=O)O)NC(=O)[C@@H](CCN)NC(=O)[C@@H](NC(=O)C[C@H](O)c2cccc(OCCCCCCCCCCC)c2)COC(=O)[C@@H]([C@H](O)CCl)NC(=O)[C@H]([C@H](O)C(=O)O)NC1=O
[1]
  MIC: 0.625 µg/mL (≈ 0.481 µM)
[2]
  MIC: > 20 µg/mL

## C/C=C1\NC(=O)[C@H]([C@H](C)O)NC(=O)[C@@H](CCN)NC(=O)[C@@H](CCCCN)NC(=O)[C@@H](CC(=O)O)NC(=O)[C@@H](CCN)NC(=O)[C@@H](NC(=O)C[C@H](O)CCc2cccc(OCCCCC)c2)COC(=O)[C@@H]([C@H](O)CCl)NC(=O)[C@H]([C@H](O)C(=O)O)NC1=O
[1]
  MIC: > 20 µg/mL
[2]
  MIC: > 20 µg/mL

## C/C=C1\NC(=O)[C@H]([C@H](C)O)NC(=O)[C@@H](CCN)NC(=O)[C@@H](CCCCN)NC(=O)[C@@H](CC(=O)O)NC(=O)[C@@H](CCN)NC(=O)[C@@H](NC(=O)C[C@H](O)c2cccc(CCCCCCCCCCCC)c2)COC(=O)[C@@H]([C@H](O)CCl)NC(=O)[C@H]([C@H](O)C(=O)O)NC1=O
[1]
  MIC: 1.25 µg/mL (≈ 0.963 µM)
[2]
  MIC: 2.5 µg/mL (≈ 1.93 µM)

## C/C=C1\NC(=O)[C@H]([C@H](C)O)NC(=O)[C@@H](CCN)NC(=O)[C@@H](CCCCN)NC(=O)[C@@H](CC(=O)O)NC(=O)[C@@H](CCN)NC(=O)[C@@H](NC(=O)C[C@@H](O)CCc2cccc(OCCCCC)c2)COC(=O)[C@@H]([C@H](O)CCl)NC(=O)[C@H]([C@H](O)C(=O)O)NC1=O
[1]
  MIC: > 20 µg/mL
[2]
  MIC: > 20 µg/mL

## C/C=C1\NC(=O)[C@H]([C@H](C)O)NC(=O)[C@H](CCN)NC(=O)[C@H](CCCCN)NC(=O)[C@H](CC(=O)O)NC(=O)[C@@H](CCN)NC(=O)[C@@H](NC(=O)C[C@H](O)CCCCCCCCCCC)COC(=O)[C@H]([C@H](O)CCl)NC(=O)[C@H]([C@H](O)C(=O)O)NC1=O ({Tetradecanoyl(3R-OH)}-S[dDab]DK[Dab][aThr][Dhb][Asp(3S-OH)][Thr(4-Cl)]; ester 1-C)
[2]
  MIC: > 20 µg/mL
[3]
  MIC: 0.625 µg/mL (≈ 0.517 µM)

## C/C=C1\NC(=O)[C@H]([C@@H](C)O)NC(=O)[C@@H](CCN)NC(=O)[C@@H](CCCCN)NC(=O)[C@@H](CC(=O)O)NC(=O)[C@@H](CCN)NC(=O)[C@@H](NC(=O)CC(O)CCc2cccc(OCCCCC)c2)COC(=O)[C@@H]([C@H](O)CCl)NC(=O)[C@H]([C@H](O)C(=O)O)NC1=O (stereo not given in full)
[1]
  MIC: > 20 µg/mL
[2]
  MIC: > 20 µg/mL

## C/C=C1\NC(=O)[C@H]([C@@H](C)O)NC(=O)[C@@H](CCN)NC(=O)[C@@H](CCCCN)NC(=O)[C@@H](CC(=O)O)NC(=O)[C@@H](CCN)NC(=O)[C@@H](NC(=O)CC(O)Cc2cccc(OCCCCCCCC)c2)COC(=O)[C@@H]([C@H](O)CCl)NC(=O)[C@H]([C@H](O)C(=O)O)NC1=O (stereo not given in full)
[1]
  MIC: > 20 µg/mL
[2]
  MIC: > 20 µg/mL

## C/C=C1\NC(=O)[C@H]([C@H](C)O)NC(=O)[C@@H](CCN)NC(=O)[C@@H](CCCCN)NC(=O)[C@@H](CC(=O)O)NC(=O)[C@@H](CCN)NC(=O)[C@@H](NC(=O)C[C@@H](O)c2cccc(CCCCCCCC)c2)COC(=O)[C@@H]([C@H](O)CCl)NC(=O)[C@H]([C@H](O)C(=O)O)NC1=O
[1]
  MIC: > 20 µg/mL
[2]
  MIC: > 20 µg/mL

## C/C=C1\NC(=O)[C@H]([C@@H](C)O)NC(=O)[C@@H](CCN)NC(=O)[C@@H](CCCCN)NC(=O)[C@@H](CC(=O)O)NC(=O)[C@@H](CCN)NC(=O)[C@@H](NC(=O)CC(O)CCc2cccc(OCCCCCCCCC)c2)COC(=O)[C@@H]([C@H](O)CCl)NC(=O)[C@H]([C@H](O)C(=O)O)NC1=O (stereo not given in full)
[1]
  MIC: 20 µg/mL (≈ 15.4 µM)
[2]
  MIC: > 20 µg/mL

## C/C=C1\NC(=O)[C@H]([C@@H](C)O)NC(=O)[C@@H](CCN)NC(=O)[C@@H](CCCCN)NC(=O)[C@@H](CC(=O)O)NC(=O)[C@@H](CCN)NC(=O)[C@@H](NC(=O)CC(O)CCc2cccc(OCCCCCCC)c2)COC(=O)[C@@H]([C@H](O)CCl)NC(=O)[C@H]([C@H](O)C(=O)O)NC1=O (stereo not given in full)
[1]
  MIC: 10 µg/mL (≈ 7.86 µM)
[2]
  MIC: > 20 µg/mL

## C/C=C1\NC(=O)[C@H]([C@@H](C)O)NC(=O)[C@@H](CCN)NC(=O)[C@@H](CCCCN)NC(=O)[C@@H](CC(=O)O)NC(=O)[C@@H](CCN)NC(=O)[C@@H](NC(=O)CC(O)Cc2cccc(OCCCCCC)c2)COC(=O)[C@@H]([C@H](O)CCl)NC(=O)[C@H]([C@H](O)C(=O)O)NC1=O (stereo not given in full)
[1]
  MIC: > 20 µg/mL
[2]
  MIC: > 20 µg/mL
